Some test systems named below: ACHN renal; HCT-116 colon; HCT-15 colon; MALME-3M melanoma; MDA-MB-435; MDA-N; NCI-H522 lung; OVCAR-8 ovarian; SF-268 CNS; SN12C renal; HOP-92 NSCLC.
What all share (assay): DTP human tumour cell line panel, 48 h

Structures are written as SMILES.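 Where inhibition never reached the appropriate level, the endpoint shown equals the highest concentration tested. Otherwise, values were interpolated linearly from a five-concentration, 48-hour dose response in 96-well plates. GI50 marks 50% less growth. TGI is the concentration that stops growth completely.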

On to `CC[N+]1(C)CCC(O)(c2ccc(Cl)cc2)C(C(=O)c2ccc(Cl)cc2)C1` (stereo unspecified), for which the TGI with ACHN renal was found to be 33.5 µM; in the test with HCT-116 colon, 46.7 µM; in the test with HCT-15 colon, 41.3 µM; in the test with MALME-3M melanoma, 25.6 µM; in the test with MDA-MB-435, 40.6 µM; in the test on MDA-N, 41.3 µM. Also, the total growth inhibition concentration (TGI) is 3.51 µM with NCI-H522 lung, above 100 µM in the test on OVCAR-8 ovarian, 58.8 µM with SF-268 CNS and 37.5 µM in the test on SN12C renal.
With `Cc1c(-c2cc3n(n2)C(c2cccs2)C(C#N)=C(c2ccccc2)N3)c(=O)n(-c2ccccc2)n1C` (stereo unspecified), the TGI in the test on HCT-116 colon, in the test on HCT-15 colon, in the test on HOP-92 NSCLC, in the test on MALME-3M melanoma, in the test with NCI-H522 lung and with OVCAR-8 ovarian was above 100 µM each time. The TGI in the test on SF-268 CNS and with SN12C renal was above 100 µM throughout.
Turning to `CC(=O)c1ccc(Oc2ccc(/C(C)=N\N=C(N)N)cc2)cc1`, the TGI worked out at 17.4 µM with ACHN renal; 13 µM with HCT-116 colon; 13.2 µM in the test with HCT-15 colon; 13.8 µM in the test on HOP-92 NSCLC; 8.12 µM in the test with MALME-3M melanoma; 4.04 µM with NCI-H522 lung. Moreover, the total growth inhibition concentration (TGI) with OVCAR-8 ovarian came to 12.7 µM; in the test on SF-268 CNS, 16.1 µM; in the test with SN12C renal, 13.4 µM.
Turning to `CC(C)(C)[Si](C)(C)OCCCC#CCO`, the TGI with ACHN renal, with HCT-15 colon, with MALME-3M melanoma, in the test on NCI-H522 lung, with OVCAR-8 ovarian and in the test with SF-268 CNS was above 100 µM throughout. This compound also had a total growth inhibition concentration (TGI) in the test with SN12C renal above 100 µM.
Regarding `CC1C(c2ccc3c(c2)OCO3)c2cc3c(cc2OC1N1CCCC1)OCO3` (stereo unspecified), the TGI with ACHN renal was above 100 µM; in the test on HCT-116 colon, 54.8 µM; in the test on HCT-15 colon, above 100 µM; in the test on MDA-MB-435, 23.7 µM; with MDA-N, 52.3 µM; in the test with NCI-H522 lung, 80.4 µM. In addition, the TGI with OVCAR-8 ovarian, in the test on SF-268 CNS and in the test on SN12C renal was above 100 µM throughout.
In the case of `C=C(C=O)c1c2c(nc3ccccc13)C(=O)c1ccccc1C2=O`, the total growth inhibition concentration (TGI) was 1.7 µM in the test on ACHN renal; 3.48 µM with HCT-116 colon; 1.01 µM with HCT-15 colon; 5.23 µM in the test on HOP-92 NSCLC; 3.27 µM in the test with MALME-3M melanoma; above 100 µM in the test on MDA-MB-435. The TGI in the test on NCI-H522 lung stood at 2.09 µM; with OVCAR-8 ovarian, 2.3 µM; with SF-268 CNS it was 3.02 µM; with SN12C renal, 41.3 µM.
For the compound `CC(=O)O[C@H]1CC[C@]2(C)[C@H]3CC[C@@H]4[C@H]5[C@H](C(C)C)CC[C@]5(C(=O)OCC(CO)(CO)N=C(N)N)CC[C@@]4(C)[C@]3(C)CC[C@H]2C1(C)C`, the GI50 in the test on ACHN renal is 1.8 µM; with HCT-15 colon it was 1.79 µM; with HOP-92 NSCLC, 1.48 µM; in the test with MDA-MB-435, 1.64 µM; in the test on NCI-H522 lung, 1.6 µM; with OVCAR-8 ovarian, 2.32 µM. The total growth inhibition concentration (TGI) in the test on ACHN renal stood at 3.26 µM; with HCT-15 colon, 3.71 µM; with HOP-92 NSCLC, 2.93 µM; in the test on MDA-MB-435, 3.11 µM; in the test on NCI-H522 lung, 3.16 µM; with OVCAR-8 ovarian, 5.45 µM.
As for `N#Cc1[nH]c(=O)n(-c2ccc(Cl)cc2)c1N`, the TGI in the test on ACHN renal, in the test with HCT-116 colon, in the test with HCT-15 colon, in the test with MALME-3M melanoma, in the test on MDA-MB-435 and in the test with MDA-N was above 10 µM throughout. Further, the TGI in the test on NCI-H522 lung, in the test on OVCAR-8 ovarian, in the test on SF-268 CNS and in the test with SN12C renal was above 10 µM throughout.
`CC(=O)OC1CC2CCC1(C)C2(C)C` (stereo unspecified): the TGI in the test on ACHN renal, in the test with HCT-116 colon, with HCT-15 colon, in the test on MALME-3M melanoma, in the test with MDA-MB-435 and with MDA-N was above 100 µM in each case. The TGI in the test with NCI-H522 lung, with OVCAR-8 ovarian, in the test on SF-268 CNS and in the test with SN12C renal was above 100 µM throughout.
In the case of `O=C(N/N=C1\CCc2ccccc2C1)N/N=C1\CCc2ccccc2C1`, the total growth inhibition concentration (TGI) with ACHN renal, in the test on HCT-116 colon, in the test with HCT-15 colon, with MALME-3M melanoma, with MDA-MB-435 and in the test on MDA-N was above 10 µM each time. In addition, the concentration for total growth inhibition (TGI) with NCI-H522 lung, with OVCAR-8 ovarian, with SF-268 CNS and in the test on SN12C renal was above 10 µM throughout.
Regarding `NC(=O)CCC(NCc1c2ccccc2[n+]([O-])c2ccccc12)C(=O)O` (stereo unspecified), the TGI in the test with ACHN renal, with HCT-116 colon, in the test with HCT-15 colon, with MALME-3M melanoma, in the test with NCI-H522 lung and in the test with OVCAR-8 ovarian was above 100 µM in each case. Moreover, the total growth inhibition concentration (TGI) with SF-268 CNS and in the test on SN12C renal was above 100 µM in each case.
With `CN1CCC2(CC1)C(=O)N(N1CCCCCC1)C(=O)N2c1ccccc1`, the TGI in the test with ACHN renal, in the test with HCT-116 colon, in the test on HCT-15 colon, in the test with MALME-3M melanoma, in the test on MDA-MB-435 and in the test on MDA-N was above 100 µM throughout. In addition, the TGI with NCI-H522 lung, in the test on OVCAR-8 ovarian, with SF-268 CNS and with SN12C renal was above 100 µM throughout.
On to `COc1cc(OC)c2c(c1OC)OCC(Cc1ccc(O)cc1)C2=O` (stereo unspecified), for which the total growth inhibition concentration (TGI) in the test on ACHN renal, in the test with HCT-116 colon, in the test on HCT-15 colon, in the test with MALME-3M melanoma, with MDA-MB-435 and with MDA-N was above 25 µM each time. The TGI with NCI-H522 lung, with OVCAR-8 ovarian, in the test on SF-268 CNS and with SN12C renal was above 25 µM each time.
For `C=C1c2c(cc3c(c2O)c(=O)c2ccccc2n3C)OC1(C)C`, the TGI was above 100 µM in the test on ACHN renal; above 100 µM in the test with HCT-15 colon; 65.9 µM in the test on HOP-92 NSCLC; above 100 µM in the test with MALME-3M melanoma; 9.49 µM with NCI-H522 lung; above 100 µM in the test with OVCAR-8 ovarian. Moreover, the TGI in the test with SF-268 CNS and in the test with SN12C renal was above 100 µM throughout.

The term TGI denotes the concentration at which net growth stops. A lower TGI goes with greater sensitivity of the cells. In general, GI50 refers to the concentration giving 50% growth inhibition.

The values are drawn from PubChem BioAssay (NCI).
